Substitutions are numbered along the chain they refer to. Like-named read-outs stand apart in the source and are kept apart here.
Columns and labels:
AKR1C1 = target: T1, AKR1C1 (Homo sapiens, UniProt Q04828); test: Inhibition of recombinant AKR1C1, oxidation of 1-acenaphthenol, progress-curve analysis; format: biochemical; conditions: for k+3: irreversible binding of second inhibitor molecule to E-NADH-I; for k+2: irreversible binding of second inhibitor molecule to E-NAD-I
T1 construct: made in house
T1 sequence (Q04828 1-323): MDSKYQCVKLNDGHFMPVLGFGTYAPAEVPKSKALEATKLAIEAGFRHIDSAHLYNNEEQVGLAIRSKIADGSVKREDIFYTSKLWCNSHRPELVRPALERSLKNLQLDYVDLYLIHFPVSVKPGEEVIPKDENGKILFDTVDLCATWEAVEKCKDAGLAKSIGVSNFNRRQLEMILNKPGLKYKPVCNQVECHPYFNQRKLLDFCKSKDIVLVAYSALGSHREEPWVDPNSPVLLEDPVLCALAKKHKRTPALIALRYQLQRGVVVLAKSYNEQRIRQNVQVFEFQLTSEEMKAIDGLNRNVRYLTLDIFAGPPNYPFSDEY
Protocol: (§1) To investigate the effect of ten selected ruthenium compounds, we measured their effect on the time course of oxidation of the artificial substrate 1-acenaphtenol by recombinant enzymes AKR1C1–3. The recombinant enzymes AKR1C1–AKR1C3 were prepared as described previously ([Brozic et al., 2006]). Since the artificial substrate is racemic, the oxidation follows a double exponential pattern as described previously ([Traven et al., 2015]). The in vitro catalytic activity of AKR1C1–3 enzymes was determined spectrophotometrically by monitoring the increase in NADH absorbance at 340 nm (ε(λ340) = 6220 M^−1cm^−1) in the presence of the substrate 1-acenaphthenol. Enzymatic reactions (300 µL) were performed in 100 mm potassium phosphate buffer (pH 9.0), 0.005% (v/v) TritonX-114, 5% (v/v) DMSO, containing 2.3 mm NAD^+ and 1-acenaphthenol at final concentrations of 90, 180, and 250 µM for AKR1C1, AKR1C2, and AKR1C3, respectively. A total of 5 µL of a tested compound in DMSO was added to the reaction mixture. The final concentrations of the tested compounds ranged from 1 to 200 μM, depending on the extent of inhibition (Supplementary Data). The reaction was started by adding 15 µL of AKR1C1, AKR1C2, or AKR1C3 dissolved in 1x PBS (pH 7.3) at final concentrations of 0.11, 0.16, and 1.5 µM, respectively. AKR1C1–3 activity was measured at 37°C for 3 h without shaking using a PowerWave XS microplate reader (Biotek; Winooski, VT, United States). Measurements at seven different concentrations were performed in duplicates or triplicates (Supplementary Figures S2). To mechanistically explain all the obtained progress curves for each ruthenium complex on each enzyme by a common reaction scheme, we extended the originally proposed scheme so that the interaction of the ruthenium complex with apo- and holoenzyme was allowed to be rapid and followed by a slow irreversible association of a second ruthenium complex molecule. However, the affinity of the Ru complexes for the apoenzymes was much lower so this part was excluded from the proposed kinetic model for clarity (Figure 4).
(§2) FIGURE 4 Reaction scheme for the oxidation of 1-acenaphtenol by AKR1C1-3 and its inhibition by ruthenium compounds. E represents apoenzyme, E-NAD and E-NADH represent holoenzyme with bound NAD^+ and NADH, respectively. A and B are enantiomers of substrate 1-acenaphtenol. Symbols which include I (ruthenium compound) represent holoenzyme in complex with one or two inhibitor molecules. KNAD, KNADH, and K2-3 are equilibrium constants and k+2–3 are second-order association rate constants for the binding of the second inhibitor molecule to the enzyme. The progress curves for each enzyme in the presence of ruthenium complexes were analyzed by the WEB server ENZO (https://enzo.cmm.ki.si/) designed exactly for such purposes ([Bevc et al., 2011]).

AKR1C2 = target: T2, AKR1C2 (Homo sapiens, UniProt P52895); test: Inhibition of recombinant AKR1C2, oxidation of 1-acenaphthenol, progress-curve analysis; format: biochemical; conditions: for k+3: irreversible binding of second inhibitor molecule to E-NADH-I; for fold less efficient inhibition of AKR1C2 compared to AKR1C1: from K3 values; for k+2: irreversible binding of second inhibitor molecule to E-NAD-I
T2 construct: made in house
T2 sequence (P52895 1-323): T1 sequence (Q04828 1-323) with T38V, R47H, L54V, C87S, V151M, R170H, Q172L
Protocol: as §1, §2

[1] = reversible binding to holoenzyme E-NADH, read-out: K3
[2] = AKR1C2, reversible binding to holoenzyme E-NAD, read-out: K2
[3] = AKR1C2, reversible binding to holoenzyme E-NADH, read-out: K3
[4] = reversible binding to holoenzyme E-NAD, read-out: K2

Row | SMILES | k+3 (AKR1C1) | Ki (AKR1C1; [1]) | k+3 (AKR1C2; AKR1C2) | Ki (AKR1C2; [2]) | Ki (AKR1C2; [3]) | fold less efficient inhibition of AKR1C2 compared to AKR1C1 (AKR1C2) | k+2 (AKR1C1) | Ki (AKR1C1; [4]) | k+2 (AKR1C2; AKR1C2) | inhibitory effect (in words) (AKR1C1) | irreversible inhibition (in words) (AKR1C1) | inhibitory effect (in words) (AKR1C2; AKR1C2) | irreversible inhibition (in words) (AKR1C2; AKR1C2)
1 | Cc1ccc(C(C)C)cc1.O=C(C=C([O][Ru][Cl])c1ccc(I)cc1)C(F)(F)F [Compound 1] | 9.4 M⁻¹ s⁻¹ | 0.0214 µM | 7.7 M⁻¹ s⁻¹ | 305 µM | 0.0527 µM | 2.5 fold |  |  |  |  |  |  | 
2 | C1N2CN3CN1CP(C2)C3.Cc1ccc(C(C)C)cc1.F[P-](F)(F)(F)(F)F.O=C(C=C([O][Ru+])c1ccc(I)cc1)C(F)(F)F [Compound 2] |  |  |  | 80 µM |  |  | 25.9 M⁻¹ s⁻¹ | 2.8 µM | 12.6 M⁻¹ s⁻¹ |  |  |  | 
3 | CN(C)c1ccc(C(=CC(=O)C(F)(F)F)[O][Ru][Cl])cc1.Cc1ccc(C(C)C)cc1 [Compound 3, (η^6-p-cymene)chlorido(4,4,4-trifluoro-1-(4-(dimethylamino)phenyl)-1,3-butandionato)ruthenium(II)] | 4.3 M⁻¹ s⁻¹ | 0.0429 µM | 55.4 M⁻¹ s⁻¹ | 157 µM | 1.12 µM | 26 fold | 31.5 M⁻¹ s⁻¹ | 107 µM | 7.4 M⁻¹ s⁻¹ |  |  |  | 
4 | Cc1ccc(C(C)C)cc1.O=C(C=C([O][Ru][Cl])c1ccc2c(c1)OCO2)C(F)(F)F [Compound 5] | 6.0 M⁻¹ s⁻¹ | 0.0235 µM | 7.3 M⁻¹ s⁻¹ |  | 0.0662 µM | 2.8 fold |  |  |  |  |  |  | 
5 | C1N2CN3CN1CP(C2)C3.Cc1ccc(C(C)C)cc1.F[P-](F)(F)(F)(F)F.O=C(C=C([O][Ru+])c1ccc2c(c1)OCO2)C(F)(F)F [Compound 6] |  |  |  | 8.3 µM |  |  | 48.8 M⁻¹ s⁻¹ | 3.1 µM | 172 M⁻¹ s⁻¹ |  |  |  | 
6 | Cc1ccc(C(C)C)cc1.[Cl-].[O-]c1c(I)cc(Cl)c2cccnc12.[Ru+2] [Compound 7] | 17.1 M⁻¹ s⁻¹ | 0.345 µM | 11.1 M⁻¹ s⁻¹ |  | 0.0654 µM |  |  |  |  |  |  |  | 
7 | C1N2CN3CN1CP(C2)C3.Cc1ccc(C(C)C)cc1.F[P-](F)(F)(F)(F)F.[O-]c1c(I)cc(Cl)c2cccnc12.[Ru+2] [Compound 8] |  |  |  | 1.6 µM |  |  |  | 0.35 µM | 929 M⁻¹ s⁻¹ |  |  |  | 
8 | Cc1ccc(C(C)C)cc1.O=[N+]([O-])c1ccc([O][Ru][Cl])c2ncccc12 [Compound 9, (η ^6-p-Cymene) (nitroxolinato)chloridoruthenium (II)] |  |  |  | 191 µM |  |  |  | 227 µM |  | very weak inhibitory effect | virtually no irreversible inhibition | very weak inhibitory effect | virtually no irreversible inhibition
9 | C1N2CN3CN1CP(C2)C3.Cc1ccc(C(C)C)cc1.F[P-](F)(F)(F)(F)F.O=[N+]([O-])c1ccc([O][Ru+])c2ncccc12 [Compound 10, (η ^6-p-cymene)(nitroxolinato)(pta)ruthenium(II) hexafluorophosphate] |  |  |  | 42.5 µM |  |  | 13.5 M⁻¹ s⁻¹ | 49.7 µM | 5.1 M⁻¹ s⁻¹ |  |  |  | 

From paper PMC9403717, “Ruthenium complexes show potent inhibition of AKR1C1, AKR1C2, and AKR1C3 enzymes and anti-proliferative action against chemoresistant ovarian cancer cell line” (Frontiers in Pharmacology, 2022)
